Laboratory results as given in PMC5859971 (Genes & Development, 2018).

Key:
[1] = tested on: splicing of Ad2.2 pre-mRNA substrate; assay: In vitro splicing (IVS) assay, Ad2.2 substrate, HeLa S3 nuclear extracts, RT-qPCR; assay type: biochemical, human
Description: (§1) A substrate competitive mechanism of action (MOA) would predict that weaker pre-mRNA substrates would be easier to inhibit than stronger substrates. To date, it has not been possible to evaluate substrate competition using traditional steady-state conditions because splicing reactions are thought to be single-turnover events in vitro, and therefore it is not possible to measure a KM for the pre-mRNA. […] Specifically, we engineered the strong in vitro splicing substrate Ad2.1 by enhancing the U2 snRNP base-pairing around the BPA found in the Ad2 substrate. We then engineered a weaker substrate, Ad2.2, by adding a decoy BPS lacking an extrahelical adenosine (Ad2.2) (Fig. 5A; Supplemental Vector NTI files; [Corrionero et al. 2011]). […] We then evaluated E7107 and several chemical probes to better understand their mechanism.
(§2) Figure 5. […] (A) Base-pairing logic for IVS substrates. (BPRS) Branch point recognition sequence in U2 snRNA; (BPS) the BPS in the pre-mRNA. The Ad2 gene BPS sequence (UACUUAU) was modified (UACUAAU) to strengthen the U2 base-pairing interactions flanking the BPA, leading to the Ad2.1 substrate (BPA in red). The Ad2.2 sequence has the same BPS as Ad2 but also contains a 5′ decoy BPS sequence (lacking an extrahelical adenine) that can base-pair with the BPRS. The decoy BPS and suboptimal BPS overlap, which gives U2 at least two possibilities for possible base pairing, as indicated. […] (B) RT-qPCR time-course data showing product formation over time. […] (C) Representative IC50 curves for compound 6 using the two different substrates (Ad2.1 and Ad2.2).
(§3) The Ad2-derived ([Pellizzoni et al. 1998]) sequence was cloned into the pGEM-3Z vector (Promega) using 5′ EcoRI and 3′ XbaI restriction sites. The Ad2 variant (Ad2.2) ([Seiler et al. 2018]) was cloned into pcDNA3.1(+) vector (Promega) using the same restriction sites. The plasmids were linearized using XbaI and used as DNA templates in the in vitro transcription reactions. The FtzΔi intron-less plasmid ([Luo and Reed 1999]) was linearized using EcoRI. All RNAs were in vitro transcribed and then purified using MegaScript T7 and MegaClear kits, respectively (Invitrogen). For splicing reactions used with the Ad2.2 substrate, […] reactions were prepared using 8 µg of nuclear extracts prepared from HeLa S3, a saturating excess of 2 ng of pre-mRNA substrate, 0.2 ng of FTZΔi, and varying concentrations of compounds or DMSO.

HCT116-PHF5A^WT = assay: CellTiter-Glo viability assay, HCT116-PHF5A^WT; assay type: cell-based, human; conditions: Homo sapiens; 72 h, CellTiter-Glo; read-out: HCT116-PHF5A^WT GI50
Protocol: (§4) To further validate the pose of the compound, we analyzed the activity of several related chemical probes using the SPA with the purified protein complex ([Teng et al. 2017]). The SPA is formatted as a competition assay in which the purified protein complex is captured on a bead containing scintillant, incubated with test compounds over a dose response, and then competed off with a fixed concentration of ^3H-Plad compound. IC50 curves are then measured from the resulting light emitted from the bead (Table 1; Supplemental Fig. S4). In addition, we tested the probes in viability assays in two engineered cell lines: HCT116-PHF5A^WT and the sensitization line HCT116-PHF5A^R38C (Table 1; Supplemental Fig. S5). This facilitates profiling of chemical probe activity in the PHF5A background (wild type and mutant). The relative expression levels were further confirmed by Western blot analysis (Supplemental Fig. S5).
(§5) Parental HCT116 cells were obtained from American Type Culture Collection and cultured in RPMI 1640 medium supplemented with 10% fetal bovine serum. PHF5A R38C was generated using the Agilent QuikChange II kit and was cloned into pLenti6.3/V5 as described ([Teng et al. 2017]). The verified clone was used for lentivirus production using X293T cells. Parental HCT116 cells were infected with virus and selected with blasticidin S at 10 µg mL^−1 for 1 wk. Engineered cell lines were subsequently maintained in the absence of antibiotic. Transgene expression was confirmed by Western blot analysis (Supplemental Fig. S4). For Western blot analysis, α-PHF5A rabbit polyclonal antibody (Protein Tech, 15554-1-AP) was used at 1:1000 dilution in LI-COR buffer, and anti-rabbit secondary antibody (LI-COR) was used at 1:5000 dilution. The Western blot was imaged using an Odyssey V3.0 imager (LI-COR). For CellTiter-Glo analysis of the wild-type and PHF5A^R38C cell lines, 500 cells were seeded in each well of a 384-well plate 1 d before compound addition. Dose response was measured in 11-point serial dilutions with a top dose of 10 µM. The percentage of DMSO was controlled throughout, and a DMSO-only control was included. Seventy-two hours after dosing, CellTiter-Glo reagent was added, incubated, and assayed on an EnVision multilabel reader (PerkinElmer). Luminescence values from each treatment were normalized to the average value of the respective DMSO control. The dose response curve plots were generated in GraphPad Prism, and GI50 values were calculated from nonlinear regression analysis. GI50 values for the wild-type and R38C mutant cell lines were plotted in Spotfire.

HCT116-PHF5A^R38C = assay: CellTiter-Glo viability assay, HCT116-PHF5A^R38C; assay type: cell-based, human
Protocol: as §4, §5

[2] = tested on: splicing of Ad2.1 pre-mRNA substrate; assay: In vitro splicing (IVS) assay, Ad2.1 substrate, HeLa S3 nuclear extracts, RT-qPCR; assay type: biochemical, human; conditions: Ad2.1 (strong) substrate
Description: as §1, §2, §3

## CCC(O)C(C)C1OC1CC(C)(O)C=CC=C(C)C1OC(=O)CC(O)CCC(C)(O)C(OC(=O)N2CCN(C3CCCCCC3)CC2)C=CC1C (stereo not shown) [Compound E7107]
[1]; Ad2.1 and Ad2.2 substrates compared
  inhibition of strong and weak IVS substrates: inhibit both the strong and weak substrates equally well
[1]; Ad2.2 (weak) substrate
  IC50: 9.9 nM
HCT116-PHF5A^WT
  GI50: 2.3 nM
HCT116-PHF5A^R38C; GI50 R38C vs wild type, n = 2
  sensitization (enhanced potency in PHF5A^R38C vs wild type): twofold
HCT116-PHF5A^R38C; Homo sapiens, 72 h, CellTiter-Glo, read-out: HCT116-PHF5A^R38C GI50
  GI50: 1.2 nM
HCT116-PHF5A^R38C; R38C vs wild type
  PHF5A^R38C sensitization phenotype (words): sensitization
[2]
  IC50: 9.1 nM
